Data as given in patent US20150132405A1, “SYNERGISTIC COMPOSITIONS OF MONOCHLOROUREA AND MODIFIED MONOCHLOROUREAS” (HERCULES INCORPORATED, priority 2013, published 2015).
In brackets after ≈: the same amount, converted by molar mass. Read-outs that look alike come from different tables or passages of the source.

Test system: Escherichia coli
Assay: Minimal Inhibitory Concentration (MIC), two-fold dilution series in 96 well microplate
Format: cell-based
Conditions: for MIC (QA), used alone: first biocide used alone
Source text: While there are various methods known to individuals skilled in the art for measuring levels of antimicrobial activity, in the following examples the endpoint used is known as the Minimal Inhibitory Concentration, or MIC. This is the lowest concentration of a substance or substances which can achieve complete inhibition of growth.
In order to determine the Minimal Inhibitory Concentration, a two-fold dilution series of the biocide is constructed with the dilutions being made in growth media. The dilutions are made in a 96 well microplate such that each well has a final volume of 280 μl of media and biocide. The first well has, for example, a concentration of 1000 ppm biocide, the second 500 ppm, the third 250 ppm, and so forth, with the 12th and final well in the row having no biocide at all and serving as a positive growth control. After the dilution series is constructed the wells receive an inoculum of microbe suspended in growth media such that the final concentration of microbes in the well is ˜5×10^5 cfu/ml. In these examples the test microbe used is Escherichia coli. The cultures are incubated at an appropriate temperature for 18-24 hours, and the wells scored as positive or negative for growth based on a visual examination for turbid wells.

[1] = Escherichia coli, second biocide used alone, complete inhibition of growth, 18-24 hours, read-out: MIC (QB), used alone
[2] = second biocide used alone, complete inhibition of growth, 18-24 hours
[3] = Escherichia coli, used alone, Table 26
[4] = complete inhibition of growth, 18-24 hours

In the case of CC1(C)C(=O)N(Cl)C(=O)N1Br [BCDMH, 1-bromo-3-chloro-5,5-dimethylhydantoin], the MIC [1] was 61 µg/mL (≈ 253 µM).

For O=[N+]([O-])C(Br)(CO)CO [BNPD, 2-bromo-2-nitropropane-1,3,-diol], the “MIC (QB), used alone” value [2] was 24 ppm.

N#CC(Br)(Br)C(N)=O [DBNPA, 2,2-dibromo-3-nitrilopropionamide] gave an MIC [1] of 11 µg/mL (≈ 45.5 µM).

With CNC(=O)N(C)Cl [DMCU, dimethyl monochlorourea] the “DMCU MIC (QA), used alone” value [3] was 10 ppm, the “DMCU MIC (QA), used alone” value (Escherichia coli, used alone, Table 27) was 10 ppm and the “DMCU MIC (QA), used alone” value (Escherichia coli, used alone, Table 28) was 10 ppm. The “MIC (QA), used alone” value [4] was 10 ppm and the “MIC (QB), used alone” value [2] was 10 ppm.

O=CCCCC=O [GLUT, glutaraldehyde] showed an MIC [1] of 45 µg/mL (≈ 449 µM) and an MIC (Escherichia coli, used alone, Table 28, read-out: GLUT MIC (QB), used alone) of 45 µg/mL (≈ 449 µM).

OO [H2O2, hydrogen peroxide] was tested, and the “MIC (QB), used alone” value [2] was 1000 ppm.

For N#CSCSC#N [MBT, methylene bisthiocyanate], the MIC (Escherichia coli, read-out: MIC (QB), used alone) was 8 µg/mL (≈ 61.4 µM).

In the case of NCl [MCA, monochloramine], the “MIC (QB), used alone” value [2] was 47 ppm.

With NC(=O)NCl [MCU, monochlorourea] the “MIC (QA), used alone” value [4] was 100 ppm and the “MIC (QB), used alone” value [2] was 100 ppm.

In the case of “N-alkyl (C12-C16)-N,N-dimethyl benzylalkonium chloride [QAC]”, the “QAC MIC (QB), used alone” value [3] was 27 ppm and the “MIC (QB), used alone” value [2] was 27 ppm.

With methyl monochlorourea [MMCU] the “MIC (QB), used alone” value [2] was 16 ppm.
